The text below walks through data of ChEMBL document CHEMBL4680276, “Structure-Activity Relationships of Daptomycin Lipopeptides” (2020).

In brackets after ≈: the same amount, converted by molar mass.

Common to all, as to assay type: functional
Test [1] deals with Bacillus subtilis. Description: Antibacterial activity against Bacillus subtilis PY79 incubated for 18 hrs in presence of 73.6 mg/L Ca2+ by visual method.
A short description of test [2]: Antibacterial activity against Streptomyces sp. WAC4713 measured up to 55 hrs. The settings on record: Streptomyces sp. WAC4713, 55 h; time hrs <=55.
Test [3] deals with Bacillus subtilis. Description: Antibacterial activity against Bacillus subtilis ATCC1046 in presence of 1.25 mM Ca2+ by serial dilution method. As to conditions: time 18 hrs.
A further test has as its system Staphylococcus aureus. Description: Antibacterial activity against Staphylococcus aureus ATCC 29213 incubated for 12 hrs in presence of 1.25 mM Ca2+ by broth microdilution method.

`CCCCCCCCCC(=O)N[C@@H](Cc1c[nH]c2ccccc12)C(=O)N[C@H](CC(N)=O)C(=O)N[C@@H](CC(=O)O)C(=O)N[C@@H]1C(=O)NCC(=O)N[C@@H](CCCN)C(=O)N[C@@H](CC(=O)O)C(=O)N[C@H](C)C(=O)N[C@@H](CC(=O)O)C(=O)NCC(=O)N[C@H](CO)C(=O)N[C@@H]([C@H](C)CC(=O)O)C(=O)N[C@@H](CC(=O)c2ccccc2N)C(=O)O[C@@H]1C`: in the test with Bacillus subtilis [1], the MIC90 was 2 µg/mL. The molecule further gave an MIC in test [2] of 512 µg/mL (≈ 316 µM).
For the molecule `CCCCCCCCCC(=O)N[C@@H](Cc1c[nH]c2ccccc12)C(=O)N[C@H](CC(N)=O)C(=O)N[C@@H](CC(N)=O)C(=O)N[C@@H]1C(=O)NCC(=O)N[C@@H](CCCCN)C(=O)N[C@@H](CC(=O)O)C(=O)N[C@H](C)C(=O)N[C@@H](CC(=O)O)C(=O)NCC(=O)N[C@H](CO)C(=O)N[C@@H](CCC(=O)O)C(=O)N[C@@H](Cc2c[nH]c3ccccc23)C(=O)O[C@@H]1C`, the MIC in the test on Bacillus subtilis [3] was determined as 1.5 µg/mL.
In the case of `CCCCCCCCCC(=O)N[C@@H](Cc1c[nH]c2ccccc12)C(=O)N[C@H](CC(=O)O)C(=O)N[C@@H](CC(N)=O)C(=O)N[C@@H]1C(=O)N(C)CC(=O)N[C@@H](CCCN)C(=O)N[C@@H](CC(=O)O)C(=O)N[C@H](C)C(=O)N[C@@H](CC(=O)O)C(=O)NCC(=O)N[C@H](CO)C(=O)N[C@@H](CCC(=O)O)C(=O)N[C@@H](CC(=O)c2ccccc2N)C(=O)O[C@@H]1C`, the MIC90 in the test on Bacillus subtilis [1] turned out to be 20 µg/mL.
Same read-out and setting: under `CCCCCCCCCC(=O)N[C@@H](Cc1c[nH]c2ccccc12)C(=O)N[C@H](CCC(=O)O)C(=O)N[C@@H](CC(N)=O)C(=O)N[C@@H]1C(=O)N(C)CC(=O)N[C@@H](C)C(=O)N[C@@H](CC(=O)O)C(=O)N[C@H](CCCCN)C(=O)N[C@@H](CC(=O)O)C(=O)NCC(=O)N[C@H](CC(N)=O)C(=O)N[C@@H](CCC(=O)O)C(=O)N[C@@H]([C@@H](C)CC)C(=O)O[C@@H]1C` stands 25 µg/mL; under `CCCCCCCCCC(=O)N[C@@H](Cc1c[nH]c2ccccc12)C(=O)N[C@H](CCC(=O)O)C(=O)N[C@@H](CC(N)=O)C(=O)N[C@H]1COC(=O)[C@H]([C@@H](C)CC)NC(=O)[C@H](CCC(=O)O)NC(=O)[C@@H](CC(N)=O)NC(=O)CNC(=O)[C@H](CC(=O)O)NC(=O)[C@@H](CCCCN)NC(=O)[C@H](CC(=O)O)NC(=O)[C@H](C)NC(=O)CN(C)C1=O`, 25 µg/mL.
Same read-out and setting: under `CCCCCCCCCC(=O)N[C@@H](Cc1c[nH]c2ccccc12)C(=O)N[C@H](CC(=O)O)C(=O)N[C@@H](CC(N)=O)C(=O)N[C@@H]1C(=O)N(C)CC(=O)N[C@@H](C)C(=O)N[C@@H](CC(=O)O)C(=O)N[C@H](C)C(=O)N[C@@H](CC(=O)O)C(=O)NCC(=O)N[C@H](CO)C(=O)N[C@@H](CCC(=O)O)C(=O)N[C@@H](CC(=O)c2ccccc2N)C(=O)O[C@@H]1C` stands 20 µg/mL.
For `CCCCCCCCCC(=O)N[C@@H](Cc1c[nH]c2ccccc12)C(=O)N[C@H](CC(N)=O)C(=O)N[C@@H](CC(=O)O)C(=O)N[C@@H]1C(=O)NCC(=O)N[C@@H](CCCCN)C(=O)N[C@@H](CC(=O)O)C(=O)N[C@H](C)C(=O)N[C@@H](CC(=O)O)C(=O)NCC(=O)N[C@H](CO)C(=O)N[C@@H](CCC(=O)O)C(=O)N[C@@H](CC(=O)c2ccccc2N)C(=O)O[C@@H]1C`, the MIC with Staphylococcus aureus amounted to 64 µg/mL.
For the molecule `CCCCCCCCCC(=O)N[C@@H](Cc1c[nH]c2ccccc12)C(=O)N[C@@H](CC(N)=O)C(=O)N[C@@H](CC(=O)O)C(=O)N[C@@H]1C(=O)NCC(=O)N[C@@H](CCCN)C(=O)N[C@@H](CC(=O)O)C(=O)N[C@H](C)C(=O)N[C@@H](CC(=O)O)C(=O)NCC(=O)N[C@H](CO)C(=O)N[C@H](CCC(=O)O)C(=O)N[C@@H](CC(=O)c2ccccc2N)C(=O)O[C@@H]1C`, the MIC90 in the test on Bacillus subtilis [1] is 11 µg/mL.
